For the compound `CCc1cccc(-c2nc(CC)sc2-c2ccnc(N)c2)c1` [Example Compound 20-8, 4-[2-ethyl-4-(3-ethylphenyl)-1,3-thiazol-5-yl]2-pyridylamine], the melting point (in general, the temperature of the solid-liquid transition) lay within 128 to 129 °C.
In turn, `CCc1nc(-c2ccc(F)c(C)c2)c(-c2ccnc(N)c2)s1` [Example Compound 20-9, 4-[2-ethyl-4-(4-fluoro-3-methylphenyl)-1,3-thiazol-5-yl]-2-pyridylamine] registered a melting point of 134 to 135 °C.
Regarding `CCc1nc(-c2cccc(C(C)C)c2)c(-c2ccnc(N)c2)s1` [Example Compound 20-10, 4-[2-ethyl-4-[3-(1-methylethyl)phenyl]-1,3-thiazol-5-yl]-2-pyridylamine], the melting point was 80 to 81 °C.
Compound `CCCc1cccc(-c2nc(CC)sc2-c2ccnc(N)c2)c1` [Example Compound 20-11, 4-[2-ethyl-4-(3-propylphenyl)-1,3-thiazol-5-yl]-2-pyridylamine] came in with a melting point of 72 to 74 °C.
For `CCc1nc(-c2cccs2)c(-c2ccnc(N)c2)s1` [Example Compound 20-12, 4-[2-ethyl-4-(2-thienyl)-1,3-thiazol-5-yl]-2-pyridylamine] the value was 159 to 160 °C; for `CCCc1nc(-c2cccc(Cl)c2)c(-c2ccnc(N)c2)s1` [Example Compound 21-1, 4-[4-(3-chlorophenyl)-2-propyl-1,3-thiazol-5-yl]-2-pyridylamine], 99 to 100 °C.
For `CCOC(=O)Cc1nc(-c2cccc(Cl)c2)c(-c2ccnc(N)c2)s1` [Example Compound 21-2, Ethyl [5-(2-amino-4-pyridyl)-4-(3-chlorophenyl)-1,3-thiazol-2-yl]acetate] the value was 154 to 155 °C; for `Cc1cccc(-c2nc(C)sc2-c2ccnc(N)c2)c1` [Example Compound 23-1, 4-[2-methyl-4-(3-methylphenyl)-1,3-thiazol-5-yl]-2-pyridylamine], 152 to 153 °C; for `CSc1ccc(-c2nc(-c3cccc(C)c3)c(-c3ccnc(N)c3)s2)cc1` [Example Compound 23-2, 4-[4-(3-methylphenyl)-2-[4-(methylthio)phenyl]-1,3-thiazol-5-yl]-2-pyridylamine], 181 to 183 °C.
In turn, `COc1ccc(-c2nc(C)sc2-c2ccnc(N)c2)cc1` [Example Compound 23-3, 4-[4-(4-methoxyphenyl)-2-methyl-1,3-thiazol-5-yl]-2-pyridylamine] came in with a melting point of 140 to 141 °C.
`Cc1cccc(-c2nc(C(=O)O)sc2-c2ccnc(N)c2)c1` [Example Compound 25-1, 5-(2-amino-4-pyridyl)-4-(3-methylphenyl)-1,3-thiazole-2-carboxylic acid] showed a melting point of 156 to 157 °C.
For `Cc1cccc(-c2nc(C(=O)O)sc2-c2ccnc(C)c2)c1` [Example Compound 25-2, 5-(2-methyl-4-pyridyl)-4-(3-methylphenyl)-1,3-thiazole-2-carboxylic acid] the value was 135 to 136 °C; for `Cc1cccc(-c2ncsc2-c2ccnc(N)c2)c1` [Example Compound 27-1, 4-[4-(3-methylphenyl)-1,3-thiazol-5-yl]-2-pyridylamine], 91 to 92 °C.
The figure for `Cc1nc(-c2cccc(Cl)c2)c(-c2ccnc(N)c2)s1` [Example Compound 27-2, 4-[4-(3-chlorophenyl)-2-methyl-1,3-thiazol-5-yl]-2-pyridylamine] is 142 to 143 °C.
For `CCc1nc(-c2cccc(C)c2)c(-c2ccnc(NC(=O)C3CCCC3)c2)s1` [Example Compound 29-1, N-[4-[2-ethyl-4-(3-methylphenyl)-1,3-thiazol-5-yl]-2-pyridyl]cyclopentanecarboxamide] the value was 123 to 125 °C.
Compound `CC(=O)Nc1cc(-c2sc(C)nc2-c2cccc(Cl)c2)ccn1` [Example Compound 30-1, N-[4-[4-(3-chlorophenyl)-2-methyl-1,3-thiazol-5-yl]-2-pyridyl]acetamide] gave a melting point of 112 to 115 °C.
The figure for `CCc1nc(-c2cccc(Cl)c2)c(-c2ccnc(NC(C)=O)c2)s1` [Example Compound 30-2, N-[4-[4-(3-chlorophenyl)-2-ethyl-1,3-thiazol-5-yl]-2-pyridyl]acetamide] is 149 to 150 °C; for `CCCc1nc(-c2cccc(Cl)c2)c(-c2ccnc(NC(C)=O)c2)s1` [Example Compound 30-3, N-[4-[4-(3-chlorophenyl)-2-propyl-1,3-thiazol-5-yl]-2-pyridyl]acetamide] it is 144 to 145 °C; for `CCc1nc(-c2cccs2)c(-c2ccnc(NC(C)=O)c2)s1` [Example Compound 30-4, N-[4-[2-ethyl-4-(2-thienyl)-1,3-thiazol-5-yl]-2-pyridyl]acetamide] it is 154 to 155 °C.
For `CSc1ccc(-c2nc(-c3cccc(Cl)c3)c(-c3ccnc(NC(C)=O)c3)s2)cc1` [Example Compound 30-5, N-[4-[4-(3-chlorophenyl)-2-[4-(methylthio)phenyl]-1,3-thiazol-5-yl]-2-pyridyl]acetamide] the value was 207 to 208 °C; for `CCC(=O)Nc1cc(-c2sc(C)nc2-c2cccc(Cl)c2)ccn1` [Example Compound 30-7, N-[4-[4-(3-chlorophenyl)-2-methyl-1,3-thiazol-5-yl]-2-pyridyl]propionamide], 134 to 135 °C; for `CCC(=O)Nc1cc(-c2sc(CC)nc2-c2cccc(Cl)c2)ccn1` [Example Compound 30-8, N-[4-[4-(3-chlorophenyl)-2-ethyl-1,3-thiazol-5-yl]-2-pyridyl]propionamide], 132 to 133 °C.
The figure for `CCCc1nc(-c2cccc(Cl)c2)c(-c2ccnc(NC(=O)CC)c2)s1` [Example Compound 30-9, N-[4-[4-(3-chlorophenyl)-2-propyl-1,3-thiazol-5-yl]-2-pyridyl]propionamide] is 103 to 104 °C.
The compound `CCC(=O)Nc1cc(-c2sc(CC)nc2-c2cccs2)ccn1` [Example Compound 30-10, N-[4-[2-ethyl-4-(2-thienyl)-1,3-thiazol-5-yl]2-pyridyl]propionamide] displayed a melting point of 187 to 188 °C.
The figure for `CCC(=O)Nc1cc(-c2sc(-c3ccc(SC)cc3)nc2-c2cccc(Cl)c2)ccn1` [Example Compound 30-11, N-[4-[4-(3-chlorophenyl)-2-[4-(methylthio)phenyl]-1,3-thiazol-5-yl]-2-pyridyl]propionamide] is 187 to 188 °C.
The compound `CSc1ccc(-c2nc(-c3cccc(Cl)c3)c(-c3ccnc(NC(=O)C(C)(C)C)c3)s2)cc1` [Example Compound 30-12, N-[4-[4-(3-chlorophenyl)-2-[4-(methylthio)phenyl]-1,3-thiazol-5-yl]-2-pyridyl]pivalamide] had a melting point of 119 to 120 °C.
Consider `CCc1nc(-c2cccc(C)c2)c(-c2ccnc(NCC3CCCC3)c2)s1` [Example Compound 32, N-(cyclopentylmethyl)-4-[2-ethyl-4-(3-methylphenyl)-1,3-thiazol-5-yl]-2-pyridylamine], for which the melting point was in the range of 67 to 69 °C.
The figure for `Cc1cccc(-c2nc(N)sc2-c2ccnc(N3CCOCC3)c2)c1` [Example Compound 34-1, [4-(3-methylphenyl)-5-(2-morpholino-4-pyridyl)-1,3-thiazol-2-yl]amine] is 188 to 189 °C.

(Values after patent publication US7495018B2, “Substituted 1,3-thiazole compounds, their production and use” (Takeda Pharmaceutical Company Limited, priority 2000, dated 2009).)
